Data: PubChem BioAssay AID328 (DTP/NCI, 2004)
Several values for one entry are separate records, joined by “and”; a condition that tells them apart may be missing. Equal entries are not always repeated. Inconclusive results and toxic doses are left out. How the source made its calls: active means survival T/C of 150% or more; inactive means T/C below 125% in these data.

Test system: BDF1 mice, P388 leukemia ip, median survival T/C
Assay: NCI In Vivo Anticancer Drug Screen. Data for tumor model P388 Leukemia (intraperitoneal) in B6D2F1 (BDF1) mice
Settings: endpoint: median survival time, higher = longer survival
Procedure, shortened: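 Survival ratio, drug arm over vehicle arm, in mice with a transplanted tumour.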

[1] = dose: 100.0 mg/kg/injection, schedule: Q04DX003 (ip), vehicle: Klucel (hydroxypropylcellulose) (HPC)
[2] = dose: 200.0 mg/kg/injection, schedule: Q04DX003 (ip), vehicle: Klucel (hydroxypropylcellulose) (HPC)
[3] = dose: 400.0 mg/kg/injection, schedule: Q04DX003 (ip), vehicle: Klucel (hydroxypropylcellulose) (HPC)
[4] = dose: 100.0 mg/kg/injection, schedule: Q01DX001 (ip), vehicle: saline sonified
[5] = dose: 200.0 mg/kg/injection, schedule: Q01DX001 (ip), vehicle: saline sonified
[6] = dose: 6.25 mg/kg/injection, schedule: Q01DX009 (ip), vehicle: saline with Tween-80
[7] = dose: 100.0 mg/kg/injection, schedule: Q01DX009 (ip), vehicle: saline
[8] = dose: 100.0 mg/kg/injection, schedule: Q04DX003 (ip), vehicle: saline
[9] = dose: 200.0 mg/kg/injection, schedule: Q04DX003 (ip), vehicle: saline
[10] = dose: 400.0 mg/kg/injection, schedule: Q04DX003 (ip), vehicle: saline
[11] = dose: 100.0 mg/kg/injection, schedule: Q01DX009 (ip), vehicle: saline with Tween-80
[12] = dose: 200.0 mg/kg/injection, schedule: Q01DX009 (ip), vehicle: saline with Tween-80
[13] = dose: 50.0 mg/kg/injection, schedule: Q01DX009 (ip), vehicle: saline with Tween-80

Measured: T/C

CCOC12c3c4cccc3C(=O)c3cccc(c31)C(=O)c1cccc(c12)C4=O
inactive: dose: 100.0 mg/kg/injection, schedule: Q01DX001 (ip), vehicle: Klucel (hydroxypropylcellulose) (HPC) 95 % of control | dose: 100.0 mg/kg/injection, schedule: Q01DX009 (ip), vehicle: Klucel (hydroxypropylcellulose) (HPC) 100 % of control | [1] 100 % of control | dose: 200.0 mg/kg/injection, schedule: Q01DX001 (ip), vehicle: Klucel (hydroxypropylcellulose) (HPC) 100 % of control | dose: 200.0 mg/kg/injection, schedule: Q01DX009 (ip), vehicle: Klucel (hydroxypropylcellulose) (HPC) 100 % of control | [2] 100 % of control | dose: 400.0 mg/kg/injection, schedule: Q01DX001 (ip), vehicle: Klucel (hydroxypropylcellulose) (HPC) 109 % of control | dose: 400.0 mg/kg/injection, schedule: Q01DX009 (ip), vehicle: Klucel (hydroxypropylcellulose) (HPC) 90 % of control | [3] 91 % of control

[NH-]C(CC(N)=O)C(=O)O.[NH-]C(CC(N)=O)C(=O)O.[Ni+2] (stereo not drawn)
inactive: dose: 3.12 mg/kg/injection, schedule: Q01DX009 (ip), vehicle: water 88 % of control | dose: 6.25 mg/kg/injection, schedule: Q01DX009 (ip), vehicle: water 100 % of control | dose: 12.5 mg/kg/injection, schedule: Q01DX009 (ip), vehicle: water 94 % of control

O=C(O)c1cc(B(O)O)[nH]n1
inactive: dose: 50.0 mg/kg/injection, schedule: Q01DX001 (ip), vehicle: saline sonified 104 % of control | [4] 100 % of control | [5] 100 % of control

CC(C)(C)NC(=S)N/N=C/c1cc(Cl)cc(Cl)c1O
inactive: dose: 1.56 mg/kg/injection, schedule: Q01DX009 (ip), vehicle: saline with Tween-80 94 % of control | dose: 3.12 mg/kg/injection, schedule: Q01DX009 (ip), vehicle: saline with Tween-80 100 % of control | [6] 99 % of control

Nc1nc(N)c2cc(CNc3ccc(Cl)c(C(=O)NC(CC(=O)O)C(=O)O)c3)cnc2n1 (stereo not drawn)
inactive: [7] 100 % of control | [8] 102 % of control | dose: 200.0 mg/kg/injection, schedule: Q01DX009 (ip), vehicle: saline 100 % of control | [9] 99 % of control | dose: 400.0 mg/kg/injection, schedule: Q01DX009 (ip), vehicle: saline 108 % of control | [10] 94 % of control

CCCSCCCC(=O)O
inactive: dose: 50.0 mg/kg/injection, schedule: Q04DX003 (ip), vehicle: Klucel (hydroxypropylcellulose) (HPC) 91 % of control | [2] 91 % of control

CC(C)=CCOc1ccc(C(=O)/C=C/c2ccccc2)c(O)c1
inactive: dose: 1.25 mg/kg/injection, schedule: Q01DX009 (ip), vehicle: Klucel (hydroxypropylcellulose) (HPC) 108 % of control | dose: 2.5 mg/kg/injection, schedule: Q01DX009 (ip), vehicle: Klucel (hydroxypropylcellulose) (HPC) 101 % of control | dose: 5.0 mg/kg/injection, schedule: Q01DX009 (ip), vehicle: Klucel (hydroxypropylcellulose) (HPC) 107 % of control | dose: 10.0 mg/kg/injection, schedule: Q01DX009 (ip), vehicle: Klucel (hydroxypropylcellulose) (HPC) 91 % of control | dose: 20.0 mg/kg/injection, schedule: Q01DX009 (ip), vehicle: Klucel (hydroxypropylcellulose) (HPC) 104 % of control | dose: 40.0 mg/kg/injection, schedule: Q01DX009 (ip), vehicle: Klucel (hydroxypropylcellulose) (HPC) 89 % of control

CCOC(=O)C1=C(O)c2c(sc(C)c2-c2ccccc2)N(S(=O)(=O)c2ccc(C)cc2)CC1
inactive: [11] 100 % of control | [12] 109 % of control | dose: 400.0 mg/kg/injection, schedule: Q01DX009 (ip), vehicle: saline with Tween-80 95 % of control

CCC(=O)Nc1cccc(Cl)c1
inactive: dose: 100.0 mg/kg/injection, schedule: Q01DX001 (ip), vehicle: saline with Tween-80 109 % of control | dose: 200.0 mg/kg/injection, schedule: Q01DX001 (ip), vehicle: saline with Tween-80 109 % of control | dose: 400.0 mg/kg/injection, schedule: Q01DX001 (ip), vehicle: saline with Tween-80 90 % of control

C/C(=N\NC(=O)CC(=O)N/N=C(\C)c1ccccc1)c1ccccc1
inactive: dose: 75.0 mg/kg/injection, schedule: Q01DX009 (ip), vehicle: saline with Tween-80 91 % of control | dose: 150.0 mg/kg/injection, schedule: Q01DX009 (ip), vehicle: saline with Tween-80 99 % of control | dose: 300.0 mg/kg/injection, schedule: Q01DX009 (ip), vehicle: saline with Tween-80 90 % of control

CCC[N+](CCC)(CCC)CCC.N#CN=C([SH2+])[SH2+].N#CN=C([SH2+])[SH2+].[Pt+2]
inactive: dose: 50.0 mg/kg/injection, schedule: Q04DX003 (ip), vehicle: saline 100 % of control

Cc1cccc(N2CCNCC2)c1
inactive: dose: 6.25 mg/kg/injection, schedule: Q04DX003 (ip), vehicle: saline sonified 95 % of control | dose: 12.5 mg/kg/injection, schedule: Q04DX003 (ip), vehicle: saline sonified 100 % of control | dose: 25.0 mg/kg/injection, schedule: Q04DX003 (ip), vehicle: saline sonified 109 % of control

CCOC(=O)C1C(C)OC(=O)C(Br)C1C (stereo not drawn)
inactive: [13] 97 % of control | [11] 98 % of control | [12] 104 % of control

CC(C)CCC(=O)C(C)C
inactive: dose: 100.0 mg/kg/injection, schedule: Q04DX003 (ip), vehicle: saline with Tween-80 91 % of control | dose: 200.0 mg/kg/injection, schedule: Q04DX003 (ip), vehicle: saline with Tween-80 100 % of control | dose: 400.0 mg/kg/injection, schedule: Q04DX003 (ip), vehicle: saline with Tween-80 95 % of control

C#CC(C)OCC(O)CCl (stereo not drawn)
inactive: dose: 25.0 mg/kg/injection, schedule: Q01DX009 (ip), vehicle: saline 100 % of control | dose: 50.0 mg/kg/injection, schedule: Q01DX009 (ip), vehicle: saline 118 % of control | [7] 109 % of control | [8] 108 % of control | [9] 104 % of control | [10] 108 % of control

COc1ccc2c(c1)CCN(C1=C(C)C(=O)CC1)C2CC(=O)O (stereo not drawn)
inactive: [4] 100 % of control | [5] 100 % of control | dose: 400.0 mg/kg/injection, schedule: Q01DX001 (ip), vehicle: saline sonified 100 % of control

O=Cc1ccc([N+](=O)[O-])s1
inactive: dose: 3.13 mg/kg/injection, schedule: Q01DX009 (ip), vehicle: saline with Tween-80 99 % of control | [6] 99 % of control and 118 % of control | dose: 12.5 mg/kg/injection, schedule: Q01DX009 (ip), vehicle: saline with Tween-80 115 % of control | dose: 25.0 mg/kg/injection, schedule: Q01DX009 (ip), vehicle: saline with Tween-80 123 % of control | [13] 118 % of control

COC(=O)c1ccccc1NC(=O)NCCBr
inactive: [1] 90 % of control | [2] 100 % of control | [3] 104 % of control
